Values quoted from earlier work in publication PMC8761874 (European Journal of Nuclear Medicine and Molecular Imaging, 2022).
Read-outs that look alike come from different tables or passages of the source.

Columns and labels:
[1] = tested on: PD-L1-positive non-small cell lung cancer; settings: tiragolumab plus atezolizumab, ref [15]
[2] = tested on: patients with advanced solid tumors; settings: ref [13]

Molecule	objective response rate (ORR) ([1]; subgroup with high PD-L1 expression) [%]	objective response rate (ORR) [1] [%]	partial response rate ([2]; in combination with pembrolizumab, n = 8/43) [%]	partial response rate ([2]; monotherapy, n = 1/34) [%]
tiragolumab: anti-TIGIT mAb, given with atezolizumab in the CITYSCAPE trial	66	37		
MK-7684: anti-TIGIT mAb in a phase I trial (antibody, chains of the INN, looked up, V domains shown) VH: EVQLVQSGAEVKKPGSSVKVSCKASGYTFSSYVMHWVRQAPGQGLEWIGYIDPYNDGAKYAQKFQGRVTLTSDKSTSTAYMELSSLRSEDTAVYYCARGGPYGWYFDVWGQGTTVTVSS VL: DIQMTQSPSSLSASVGDRVTITCRASEHIYSYLSWYQQKPGKVPKLLIYNAKTLAEGVPSRFSGSGSGTDFTLTISSLQPEDVATYYCQHHFGSPLTFGQGTRLEIK			19	3
